In PubChem BioAssay AID2305 (GlaxoSmithKline (GSK), 2010):

Tested on: P. falciparum 3D7 growth, pLDH absorbance
Assay: blood-stage malaria parasite growth potency – strain 3D7, dose response (AID 2305)

Row | Compound | IC50
1 | CCOP(=O)(OCC)c1ccc(OC)c(-c2ccc[nH]2)c1 | 1190 nM
2 | CCN(CC)c1ccc(C=CC(=O)NCCN2CCC(N(C)C3CCCCC3C)CC2)cc1 (configuration not stated) | 960 nM
3 | O=C(NC(c1ccccc1)c1ccc2cccnc2c1O)c1ccccc1 (configuration not stated) | 430 nM
4 | COc1ccc(Nc2nccc(-c3ccc4c(-c5ccsc5)cnc(N)c4c3)n2)cc1 | 240 nM
5 | Cc1cc(-c2ccc3c(c2)CCN(CCC2CCC(NC(=O)/C=C/c4cccc(Cl)c4)CC2)CC3)on1 (configuration not stated) | 590 nM
6 | CCC(C)NC(=O)Cn1c2ncccc2c(=O)n1-c1ccc(C)cc1 (configuration not stated) | 1260 nM
7 | O=C(Cc1ccccn1)Nc1cccc(-c2cccc(-c3nc4ccc(C(F)(F)F)cc4[nH]3)c2)c1 | 610 nM
8 | Cc1noc(C)c1-c1cccc(CNCc2cccc(-c3ccc(-c4nc5ccccc5[nH]4)cc3)c2)c1 | 230 nM
9 | COc1ccc2nccc([C@@H](O)CN3CCC(NC(=O)C(c4ccsc4)N4CCN(c5ccccc5)CC4)CC3)c2c1 (some centres not stated) | 440 nM
10 | Cc1ccc2nc(C)cc(NN=Cc3ccc([N+](=O)[O-])cc3)c2c1 | 790 nM
11 | Oc1cccc(CNCCCN(Cc2ccccc2)c2ccccc2)c1 | 600 nM
12 | Cc1ccc(S(=O)(=O)NC2CCN(CCNC(=O)Nc3cc(C)nc4ccccc34)C2)cc1 (configuration not stated) | 1040 nM
13 | COc1ccc(C2CC(c3cccs3)=NN2C(=O)CNc2ccccc2F)cc1OC (configuration not stated) | 630 nM
14 | CCNc1nc(OCC(F)(F)F)nc(N(c2ccccc2)c2ccccc2)n1 | 470 nM
15 | CC(=O)N[C@H](C(=O)Nc1ccc(-c2ccc(-c3nc4ccc(C(F)(F)F)cc4[nH]3)cc2)cc1)C(C)C | 890 nM
16 | CCCCOc1ccc(-c2nc3ccccc3[nH]2)cc1 | 870 nM
17 | c1ccc(-c2[nH]c3ccccc3c2CN2CCC(N3CCCCC3)CC2)nc1 | 1210 nM
18 | CO/C(=C\C=C\c1cc2cc(Cl)c(Cl)cc2[nH]1)C(=O)NCCCN1CCN(c2cccc(CCO)c2)CC1 | 720 nM
19 | CCOc1cc(C(=O)N[C@@H](Cc2ccccc2)[C@H](O)CNC(C)(C)c2cccc(OC)c2)cc(N2CCCS2(=O)=O)c1 | 220 nM
20 | O=C(C1COc2ccccc2O1)N(CCCn1ccnc1)Cc1csc(-c2ccc(CNCc3ccccc3)cc2)n1 (configuration not stated) | 620 nM
21 | Cc1c(NC(=O)COc2ccc(Cl)cc2C(=O)c2cc(F)cc(C(F)(F)F)c2)ccc2ncsc12 | 1020 nM
22 | CSc1nc2nc(C)c(Cc3cccc(F)c3)c(C)n2n1 | 900 nM
23 | CN(C)CCCOc1ccc(-c2nc(-c3ccc4c(c3)CCC4=NO)c(-c3ccncc3)[nH]2)cc1 | 830 nM
24 | NC(N)=NN=Cc1ccc2c(ccc3ccccc32)c1 | 630 nM
25 | O=C(c1ccc(-c2ccc(-c3nc4ccc(C(F)(F)F)cc4[nH]3)s2)cc1)N1CCCCC1CN1CCC(O)C1 (configuration not stated) | 560 nM

Row | Compound | IC50
26 | O=C(NCc1ccc(Cl)cc1)c1ccc(CN2CCCN(Cc3cccc(O)c3)CC2)cc1 | 1170 nM
27 | Oc1ccc(CCCNc2nc(NCc3cccc4ccccc34)nc(N3CCNCC3)n2)cc1 | 810 nM
28 | Cc1cccc2[nH]c(-c3ccc(-c4ccc(CNCc5ccc(CN)cc5)cc4)s3)nc12 | 440 nM
29 | CC(C)n1cc2c(ccc3nc(N)nc(N)c32)n1 | 40 nM
30 | Cc1cc(OCC2CCN(c3ccc(C(=O)NC4CC4)cn3)CC2)ccc1F | 870 nM
31 | FC(F)(F)c1ccc2nc(-c3cccc(-c4ccc(CNCc5cnn(-c6ccccc6)n5)cc4)c3)[nH]c2c1 | 1330 nM
32 | Cc1ccc(C(=O)Nc2cc(S(=O)(=O)N3CCCC3)ccc2OCC(F)(F)F)cc1 | 850 nM
33 | COc1ccc2nccc([C@@H](O)CN3CCC(NCc4cc5c(F)ccc(F)c5[nH]4)CC3)c2c1 | 140 nM
34 | CCC1=C(C[C@H]2NCCc3cc(OC)c(OC)cc32)C[C@H]2c3cc(OC)c(OC)cc3CCN2C1 | 310 nM
35 | O=C(Nc1nc(-c2ccccn2)cs1)c1ccc(S(=O)(=O)N2CCc3ccccc32)cc1 | 830 nM
36 | Cc1ccc(NC(=O)N2CCN(CCCCCNC(=O)/C=C/c3ccc(Cl)c(Cl)c3)CC2)cc1C | 1100 nM
37 | Cc1cc(NC(=O)N=C(N)N)ccc1Cl | 700 nM
38 | COc1ccc(-c2nc3c(NCc4ccccc4)nccc3[nH]2)c(OC)c1 | 780 nM
39 | c1ccc2nc(NCCCCCCCCNc3ccc4ccccc4n3)ccc2c1 | 270 nM
40 | O=[N+]([O-])c1cccc(CNCC2CCC(CNCc3cccc([N+](=O)[O-])c3)CC2)c1 (configuration not stated) | 140 nM
41 | Cn1c(=N)cc(-c2cccc(I)c2)c2c(=O)[nH]c(N)nc21 | 270 nM
42 | CN(Cc1cccc(F)c1)C1CCCN(c2cc(NC(=O)c3ccccc3)ccn2)C1 (configuration not stated) | 920 nM
43 | O=C(Nc1ccc2c(c1)CCN2C1CCN(Cc2ccc(O)cc2)C1)c1ccco1 (configuration not stated) | 900 nM
44 | COc1ccc(-c2cccc(NC(=O)c3ccc(F)cc3)c2)cc1CN1CCCN(C)CC1 | 830 nM
45 | CN(CCCN(C)c1cc(NC(=O)c2ccc(F)cc2)ccn1)Cc1cccc(F)c1 | 1220 nM
46 | CC(=O)N(Cc1cccc(-c2cccc(CNCCc3ccccc3)c2)c1)C1CCN(Cc2ccccc2)CC1 | 670 nM
47 | O=C(NCc1ccccc1)Nc1cccc(-c2cccc(-c3nc4ccc(C(F)(F)F)cc4[nH]3)c2)c1 | 260 nM
48 | CCc1ccc(-c2cnc(N)c3cc(-c4ccnc(N)n4)ccc23)cc1 | 1350 nM
49 | O=C(O[C@H]1CN[C@H](C#Cc2cc3ncnc(Nc4ccc5c(ccn5S(=O)(=O)c5cccs5)c4)c3s2)C1)N1CCOCC1 | 1100 nM
50 | CC(=O)Nc1nc(C(=O)Nc2ccc(-c3ccc(-c4nc5c(C)cccc5[nH]4)cc3)cc2)cs1 | 180 nM

Row | Compound | IC50
51 | O=C(Nc1ccc(N2CCCN(Cc3cccc(F)c3)CC2)cc1)c1ccc(F)cc1 | 840 nM
52 | COc1ccccc1N1CCN(Cc2c(NC(C)=O)sc(C)c2C)CC1 | 430 nM
53 | O=C(Nc1ccc(Cn2ncc(N3CCCNCC3)c(Cl)c2=O)cc1)Nc1cccc(SC(F)(F)F)c1 | 680 nM
54 | Cc1cc(NC(=O)Nc2ccc3nccc(N4CCN(C)CC4)c3c2)ccc1Br | 90 nM
55 | O=C(Nc1cc(F)cc(F)c1)NC1CCN(CCCCCNC(=O)[C@@H]2C[C@H]2c2ccc(Cl)c(Cl)c2)CC1 | 750 nM
56 | COc1cc(N(Cc2ccccc2C)S(=O)(=O)Cc2ccccc2[N+](=O)[O-])c(OC)cc1Cl | 1010 nM
57 | CN1CCN(CCCN(Cc2csc(-c3ccc(CNCc4ccccc4)cc3)n2)S(=O)(=O)c2cccc3cccnc23)CC1 | 1410 nM
58 | CN1CCN(c2cc(NC(=O)c3ccc(-c4ccc(C#N)cc4)cc3)ccc2Cl)CC1 | 460 nM
59 | CC(=O)Nc1nc(C(=O)Nc2ccc(-c3cccc(-c4nc5c(C)cccc5[nH]4)c3)cc2)cs1 | 230 nM
60 | CCCN(CC1CC1)c1nc(C)nc2c(-c3ccccc3)cc(C)cc12 | 1020 nM
61 | CN1CCC(Oc2cc(CN3CC[C@H](NC(=O)c4ccc(Cl)c(Cl)c4)C3)ccc2I)C1 (some centres not stated) | 840 nM
62 | O=C(CCCCCCc1ccccc1)Nc1ccc2nc3c(c(NCc4ccccc4)c2c1)CCCC3 | 360 nM
63 | O=C(Nc1ccc(Cl)cc1)Nc1ccc(OCC(O)CN2CCCCC2)cc1 (configuration not stated) | 1160 nM
64 | Fc1cccc(COc2ccc(Nc3ncnc4sc(C#C[C@H]5CCCN5)cc34)cc2F)c1 | 870 nM
65 | CN1CCN(c2cc(NC(=O)c3ccc(-c4ccc(Cl)cc4)cc3)ccc2Cl)CC1 | 610 nM
66 | Cc1cccc2[nH]c(-c3cccc(-c4cccc(NC(=O)Nc5ccc(F)c(F)c5F)c4)c3)nc12 | 110 nM
67 | O=C(Nc1ccccc1)c1cnc[nH]1 | 990 nM
68 | Cc1cccc(C)c1CNc1ccnc2cc(Br)ccc12 | 170 nM
69 | COc1cccc(NC(=O)c2cc(C(=O)Nc3cccc(OC)c3)cc([N+](=O)[O-])c2)c1 | 660 nM
70 | NC1CCN(Cc2cccc(-c3cccc(-c4nc5ccccc5[nH]4)c3)c2)C1 (configuration not stated) | 790 nM
71 | O=c1cc(NCCCNCc2cc3c(Cl)cccc3s2)[nH]c2ccccc12 | 470 nM
72 | NC(=NCCCc1ccccc1)c1cccc(C(N)=NCCCc2ccccc2)n1 | 1380 nM
73 | Cc1cccc2[nH]c(-c3ccc(-c4ccc(CN5CCC(N)C5)cc4)s3)nc12 (configuration not stated) | 370 nM
74 | O=C(Nc1ccc(-c2nc3ccccc3[nH]2)cc1)c1ccc(S(=O)(=O)N2CCCCC2)cc1 | 750 nM
75 | O=C(/C=C/c1ccc([N+](=O)[O-])cc1)N1CCC(NS(=O)(=O)c2ccc(Br)cc2)CC1 | 1050 nM

Row | Compound | IC50
76 | Cc1[nH]c(C)c(-c2ccc(Oc3ccc(Cl)cc3Cl)cc2)c(=O)c1Br | 300 nM
77 | CN(C(=O)c1nn(-c2ccccn2)c2nccc(-c3cccs3)c12)C1CCCCC1 | 1240 nM
78 | COc1ccc(C[C@@H](N)C(=O)N[C@H]2[C@@H](O)[C@H](n3cnc4c(N(C)C)ncnc43)O[C@@H]2CO)cc1 | 170 nM
79 | O=S(=O)(NCCN1CCCC1)c1ccc(-c2ccc(CNCc3ccccc3)cc2)s1 | 850 nM
80 | Cc1ccc(Nc2nccc(N(C)c3ccc4c(c3)nc(NC(=O)Cc3ccc(Cl)c(Cl)c3)n4C)n2)cc1S(N)(=O)=O | 1110 nM
81 | Cc1cccc2[nH]c(-c3cccc(-c4ccc(NC(=O)C(C)(C)c5ccccn5)cc4)c3)nc12 | 690 nM
82 | CCNc1cc(C(=O)N[C@@H](Cc2ccccc2)[C@H](O)CN[C@@H](C)c2ccccc2)cc(N2CCCC2=O)c1 | 670 nM
83 | COc1ccc(NC(=O)CCNc2cc(C)nc(NCc3ccccc3C)n2)cc1 | 1070 nM
84 | Cn1cc(C(=O)Nc2cccc(-c3cccc(-c4nc5ccc(F)cc5[nH]4)c3)c2)n(C)c1=O | 390 nM
85 | CC[C@H](C)[C@H](NC(=O)[C@H](CC1CCCCC1)[C@H](CC)N(O)C=O)C(=O)Nc1ccccn1 | 180 nM
86 | Cc1nc(N/C=C/c2ccc(O)cc2)cc(N2CCCC2)n1 | 1070 nM
87 | Cc1nc(C)c(CC(=O)Nc2cccc(-c3cccc(-c4nc5ccc(C(F)(F)F)cc5[nH]4)c3)c2)s1 | 830 nM
88 | Cc1cc(NC(=O)c2ccc(S(=O)(=O)N(Cc3ccccc3)C(C)C)cc2)no1 | 850 nM
89 | O=c1cc(NCCCNCc2ccc(Cl)c(Cl)c2)[nH]c2cc(F)cc(F)c12 | 680 nM
90 | CCN(CC)CCN(Cc1ccc(-c2ccc(C(F)(F)F)cc2)cc1)C(=O)Cn1c(CCc2cccc(F)c2F)nc(=O)c2ccc(F)cc21 | 360 nM
91 | Cc1ccc(O)c(-c2cc(C(=O)Nc3ccc(S(=O)(=O)N4CCCCCC4)cc3)[nH]n2)c1 | 710 nM
92 | Cc1ccc(NC(=O)c2ccc(Cl)c(Cl)c2)cc1-c1ccc(C(=O)Nc2ccncc2)cc1 | 570 nM
93 | O=C(Nc1cc(C(F)(F)F)ccc1N1CCOCC1)C(Cl)(Cl)Cl | 370 nM
94 | ON=C1c2cc(OCCN3CCCCC3)c(Cl)cc2-c2cc(Cl)c(OCCN3CCCCC3)cc21 | 700 nM
95 | O=C1CCCN1CCCNCc1ccc(-c2ccc(-c3nc4ccc(F)cc4[nH]3)cc2)cc1 | 600 nM
96 | NC(N)=NN=CC(=O)Nc1cccc(C(F)(F)F)c1 | 1000 nM
97 | O=C(NC1CCN(Cc2ccccc2)CC1)c1ccc(-c2nc3cc(Cl)c(F)cc3[nH]2)cc1 | 250 nM
